# Where two headings read alike, the source gives them in different places.
# How the values were obtained:
# [1] = test system: gram-positive and some cases of gram-negative bacteria; conditions: against gram-positive and some cases of gram-negative bacteria; Kirst, Sides 1989; cited from earlier work
# [2] = cited from earlier work; for hygroscopicity of crystalline form: as described in EP 0,298,650
# [3] = Hygroscopicity: water uptake under an atmosphere over 75% relative humidity; type: physicochemical; conditions: for water content: sample containing 3% water at start, atmosphere over 75% relative humidity
# Method: 4. Hygroscopicity. Two different samples of non-crystalline azithromycin containing 3% water were kept under an atmosphere over 75% relative humidity. After 8 hours, water content in the first sample was 5.3%, while the second one contained 9.9% water after 72 hours.
structure (smiles),measurement,setting,value
"CC[C@H]1OC(=O)[C@H](C)[C@@H](O[C@H]2C[C@@](C)(OC)[C@@H](O)[C@H](C)O2)[C@H](C)[C@@H](O[C@@H]2O[C@H](C)C[C@H](N(C)C)[C@H]2O)[C@](C)(O)C[C@@H](C)CN(C)[C@H](C)[C@@H](O)[C@]1(C)O [Azithromycin, 9-deoxo-9a-aza-9a-methyl-9a-homoerythromycin A]",antimicrobial activity,[1],excellent antimicrobial activity
"CC[C@H]1OC(=O)[C@H](C)[C@@H](O[C@H]2C[C@@](C)(OC)[C@@H](O)[C@H](C)O2)[C@H](C)[C@@H](O[C@@H]2O[C@H](C)C[C@H](N(C)C)[C@H]2O)[C@](C)(O)C[C@@H](C)CN(C)[C@H](C)[C@@H](O)[C@]1(C)O [azithromycin dihydrate, 9-deoxo-9a-aza-9a-methyl-9a-homoerythromycin A dihydrate]",hygroscopicity of crystalline form,[2]; dihydrate,non-hygroscopic
same,percentile water content (kept constant),[2]; theoretical value 4.6%,4.5-5%
CC[C@H]1OC(=O)[C@H](C)[C@@H](O[C@H]2C[C@@](C)(OC)[C@@H](O)[C@H](C)O2)[C@H](C)[C@@H](O[C@@H]2O[C@H](C)C[C@H](N(C)C)[C@H]2O)[C@](C)(O)C[C@@H](C)CN(C)[C@H](C)[C@@H](O)[C@]1(C)O [azithromycin monohydrate],hygroscopicity of crystalline form,[2],hygroscopic
"CC[C@H]1OC(=O)[C@H](C)[C@@H](O[C@H]2C[C@@](C)(OC)[C@@H](O)[C@H](C)O2)[C@H](C)[C@@H](O[C@@H]2O[C@H](C)C[C@H](N(C)C)[C@H]2O)[C@](C)(O)C[C@@H](C)CN(C)[C@H](C)[C@@H](O)[C@]1(C)O [non-crystalline azithromycin, non-crystalline 9-deoxo-9a-aza-9a-methyl-9a-homoerythromycin A]",Hygroscopicity,[3]; conclusion from water uptake over 75% relative humidity,moderately hygroscopic
same,water content,[3]; after 8 hours (first sample),5.3%
same,water content,[3]; after 72 hours (second sample),9.9%

# — patent publication US6451990B1, “Azithromycin preparation in its noncryst alline and crystalline dihydrate forms” (Astur-Pharma, S.A., priority 1999, dated 2002)
